For orientation: IC50 means the concentration that gives 50% inhibition.

The target of this assay is T1, acyl-CoA: cholesterol acyltransferase (ACAT) (Oryctolagus cuniculus, UniProt G1SFD9).
T1 construct: tissue preparation containing rabbit intestinal microsomes; from tissue; host or cells: rabbit intestinal microsomes
T1 sequence (G1SFD9 1-524): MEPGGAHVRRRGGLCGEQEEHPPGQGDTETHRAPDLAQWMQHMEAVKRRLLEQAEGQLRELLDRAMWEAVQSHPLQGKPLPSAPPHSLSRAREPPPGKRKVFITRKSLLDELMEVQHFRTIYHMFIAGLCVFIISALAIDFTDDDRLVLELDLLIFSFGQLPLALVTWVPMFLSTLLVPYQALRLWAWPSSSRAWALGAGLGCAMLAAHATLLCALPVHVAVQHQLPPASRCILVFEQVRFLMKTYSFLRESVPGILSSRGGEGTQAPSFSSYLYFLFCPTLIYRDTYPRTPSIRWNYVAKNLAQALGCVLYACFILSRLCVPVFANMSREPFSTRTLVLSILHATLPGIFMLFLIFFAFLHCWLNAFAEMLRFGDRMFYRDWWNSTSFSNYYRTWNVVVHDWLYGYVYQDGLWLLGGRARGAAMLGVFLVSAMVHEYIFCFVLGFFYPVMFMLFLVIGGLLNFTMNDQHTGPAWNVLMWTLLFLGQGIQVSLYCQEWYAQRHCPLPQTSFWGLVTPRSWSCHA
Put plainly: in vitro ACAT inhibition test: radiolabeled cholesterol oleate formed from radiolabeled oleic acid in rabbit intestinal microsomes. The format is biochemical. From the text:
As shown by the data presented below in Table 1, the compounds of the present invention are potent inhibitors of the enzyme acyl-CoA: cholesterol acyltransferase (ACAT), and are thus effective in inhibiting the esterification and transport of cholesterol across the intestinal cell wall. The compounds of the present invention are thus useful in pharmaceutical formulations for the treatment of hypercholesterolemia or atherosclerosis.
The ability of representative compounds of the present invention to inhibit ACAT was measured using an in vitro test more fully described in F. J. Field and R. G. Salone, Biochemica et Biophysica 712:557-570 (1982). The test assesses the ability of a test compound to inhibit the acylation of cholesterol by oleic acid by measuring the amount of radiolabeled cholesterol oleate formed from radiolabeled oleic acid in a tissue preparation containing rabbit intestinal microsomes.
On to `CC(C)c1cccc(C(C)C)c1NC(=O)C1CCCC(c2ccccc2)(c2ccccn2)C1=O` (stereo not drawn) [Example 2, N-[2,6 bis(1-methylethyl)phenyl]-2-oxo-3-phenyl-3-(2-pyridinyl)cyclohexanecarboxamide], for which it took 1 µM to reach half-maximal inhibition (IC50).

`CC(C)c1cccc(C(C)C)c1NC(=O)C1CCCC(CCCCCOc2ccccc2)(c2ccccc2)C1=O` (stereo not drawn) [Example 6, N-[2,6-bis (1-methylethyl)phenyl]-2-oxo-3-(5-phenoxypentyl)-3-phenylcyclohexanecarboxamide] displayed an IC50 of 0.072 µM. This IC50 is about 14-fold lower than that of the compound before.

`CC(C)c1cccc(C(C)C)c1NC(=O)C1CCCC(Cc2ccccn2)(Cc2ccccn2)C1=O` (stereo not drawn) [Example 5, N-[2,6-bis(1-methylethyl)phenyl]-2-oxo-3,3-bis(2-pyridinylmethyl)cyclohexanecarboxamide] yielded a half-inhibitory concentration (IC50) of 0.94 µM.

On to `CC(C)c1cccc(C(C)C)c1NC(=O)C1CCCC(Cc2ccccn2)(c2ccccc2)C1=O` (stereo not drawn) [Example 4, N-[2,6-bis(1 methylethyl)phenyl]-2-oxo-3-phenyl-3-(2-pyridinylmethyl)cyclohexanecarboxamide], for which the 50% inhibitory concentration (IC50) stood at 0.259 µM.

Consider `CC(C)c1cccc(C(C)C)c1NC(=O)C1CCCC(Cc2c(CCN(C)C)n(C)c3ccccc23)(c2ccccc2)C1=O` (stereo not drawn) [Example 3, N-[2,6 bis(1-methylethyl)phenyl-3-[2-[2-(dimethylamino)ethyl]-1-methyl-1H-indol-3-yl]methyl]-2-oxo-3-phenylcyclohexanecarboxamide], for which the IC50 was more than 1 µM.

For the compound `CC(C)c1cccc(C(C)C)c1NC(=O)C1CCC(c2ccccc2)(c2ccccn2)C1=O` (stereo not drawn) [Example 1], the IC50 is more than 1 µM.

For the origin of these results see patent publication US5118697A, “Cyclic beta-ketoamide ACAT inhibitors” (Warner-Lambert Company, priority 1991, dated 1992).
